# Test results reported in ChEMBL document CHEMBL5215001, “Diaporisoindole B Reduces Lipid Accumulation in THP-1 Macrophage Cells via MAPKs and PPARγ-LXRα Pathways and Promotes the Reverse Cholesterol Transport by Upregulating SR-B1 and LDLR in HepG2 Cells” (J Nat Prod, 2022).
# Activity calls are given as the source filed them. No cut-off for these calls is given here.
# Assays:
# HepG2 [1] = test: Inhibition of ox-LDL induced lipid accumulation in human HepG2 cells assessed as reduction in total triglyceride level at 2.5 to 15 uM; assay type: functional, cell-based; conditions: dose 2.5-15 µM
# THP-1 [2] = test: Inhibition of ox-LDL uptake in human THP-1 foam cells assessed as downregulation of CD36 expression by measuring reduction in total ERK protein expression at 2.5 to 15 uM by Western blot analysis; assay type: functional, cell-based; conditions: dose 2.5-15 µM
# HepG2 [3] = test: Inhibition of ox-LDL induced lipid accumulation in human HepG2 cells assessed as reduction in total cholesterol level at 2.5 to 15 uM; assay type: functional, cell-based; conditions: dose 2.5-15 µM
# HepG2 [4] = test: Induction of reverse cholesterol transport in human HepG2 cells assessed as increase in SR-B1 protein expression by Western blot analysis; assay type: functional, cell-based; conditions: dose 2.5-15 µM, DDE = dose-dependent effect
# HepG2 [5] = test: Downregulation of SREBP2 protein expression in human HepG2 cells at 2.5 to 15 uM by Western blot analysis; assay type: functional, cell-based; conditions: dose 2.5-15 µM
# HepG2 [6] = test: Reduction in triglyceride level in human HepG2 cells assessed as reduction in ACC protein expression by Western blot analysis; assay type: functional, cell-based; conditions: dose 2.5-15 µM, DDE = dose-dependent effect
# THP-1 [7] = test: Inhibition of ox-LDL uptake in human THP-1 foam cells assessed as downregulation of CD36 expression by measuring reduction in total JNK protein expression at 2.5 to 15 uM by Western blot analysis; assay type: functional, cell-based; conditions: dose 2.5-15 µM
# HepG2 [8] = test: Downregulation of SREBP1c mRNA expression in human HepG2 cells at 2.5 to 15 uM by qRT-PCR analysis; assay type: functional, cell-based; conditions: dose 2.5-15 µM
# HepG2 [9] = test: Reduction in triglyceride level in human HepG2 cells assessed as reduction in FAS mRNA expression by qRT-PCR analysis; assay type: functional, cell-based; conditions: dose 2.5-15 µM, DDE = dose-dependent effect
# THP-1 [10] = test: Inhibition of ox-LDL uptake in human THP-1 foam cells assessed as downregulation of CD36 expression by measuring reduction in MAPK mRNA expression at 2.5 to 15 uM by qRT-PCR analysis; assay type: functional, cell-based; conditions: dose 2.5-15 µM
# THP-1 [11] = test: Inhibition of ox-LDL induced lipid accumulation in human THP-1 cells assessed as reduction in total cholesterol level at 2.5 to 15 uM; assay type: functional, cell-based; conditions: dose 2.5-15 µM
# HepG2 [12] = test: Reduction in cholesterol biosynthesis in human HepG2 cells assessed as reduction in HMGCR mRNA expression at 2.5 to 15 uM by qRT-PCR analysis; assay type: functional, cell-based; conditions: dose 2.5-15 µM
# THP-1 [13] = test: Induction of lipid efflux in human THP-1 cells assessed as upregulation of PPARgamma protein expression at higher concentrations by Western blot analysis; assay type: functional, cell-based
# THP-1 [14] = test: Inhibition of ox-LDL uptake in human THP-1 foam cells assessed as downregulation of CD36 expression by measuring reduction in pERK protein expression at 2.5 to 15 uM by Western blot analysis; assay type: functional, cell-based; conditions: dose 2.5-15 µM
# HepG2 [15] = test: Cytotoxicity against human HepG2 cells assessed as inhibition of cell growth at 0 to 15 uM incubated for 24 hrs by CCK-8 assay; assay type: toxicity, cell-based; conditions: hepg2, 24 h, dose 0-15 µM
# HepG2 [16] = test: Downregulation of SREBP2 mRNA expression in human HepG2 cells at 2.5 to 15 uM by qRT-PCR analysis; assay type: functional, cell-based; conditions: dose 2.5-15 µM
# HepG2 [17] = test: Induction of reverse cholesterol transport in human HepG2 cells assessed as reduction in PCSK9 protein expression at 2.5 to 15 uM by Western blot analysis; assay type: functional, cell-based; conditions: dose 2.5-15 µM
# THP-1 [18] = test: Induction of lipid efflux in human THP-1 cells assessed as upregulation of LXRalpha protein expression at higher concentrations by Western blot analysis; assay type: functional, cell-based
# THP-1 [19] = test: Inhibition of foam cells formation in human THP-1 cells assessed as upregulation of ABCA1 protein expression at 2.5 to 15 uM by Western blot analysis; assay type: functional, cell-based; conditions: dose 2.5-15 µM
# HepG2 [20] = test: Induction of reverse cholesterol transport in human HepG2 cells assessed as increase in SR-B1 mRNA expression by qRT-PCR analysis; assay type: functional, cell-based; conditions: dose 2.5-15 µM, DDE = dose-dependent effect
# THP-1 [21] = test: Induction of lipid efflux in human THP-1 cells assessed as upregulation of PPARgamma mRNA expression by qRT-PCR analysis; assay type: functional, cell-based; conditions: dose 2.5-15 µM, DDE = dose-dependent effect
# HepG2 [22] = test: Induction of reverse cholesterol transport in human HepG2 cells assessed as reduction in PCSK9 mRNA expression at 2.5 to 15 uM by qRT-PCR analysis; assay type: functional, cell-based; conditions: dose 2.5-15 µM
# THP-1 [23] = test: Cytotoxicity against human THP-1 cells assessed as inhibition of cell growth at 0 to 15 uM incubated for 24 hrs by CCK-8 assay; assay type: toxicity, cell-based; conditions: thp-1, 24 h, dose 0-15 µM
# THP-1 [24] = test: Inhibition of ox-LDL induced lipid accumulation in human THP-1 cells assessed as reduction oxidized LDL uptake at 2.5 to 15 uM incubated for 4 hrs by Hoechst 33258 dye based confocal microscopic analysis; assay type: functional, cell-based; conditions: dose 2.5-15 µM
# THP-1 [25] = test: Inhibition of foam cells formation in human THP-1 cells assessed as reduction in CD36 mRNA expression at 2.5 to 15 uM by RT-PCR analysis; assay type: functional, cell-based; conditions: dose 2.5-15 µM
# THP-1 [26] = test: Inhibition of foam cells formation in human THP-1 cells assessed as reduction in CD36 protein expression at 2.5 to 15 uM by Western blot analysis; assay type: functional, cell-based; conditions: dose 2.5-15 µM
# THP-1 [27] = test: Inhibition of foam cells formation in human THP-1 cells assessed as upregulation of ABCA1 mRNA expression at 2.5 to 15 uM by RT-PCR analysis; assay type: functional, cell-based; conditions: dose 2.5-15 µM
# HepG2 [28] = test: Induction of reverse cholesterol transport in human HepG2 cells assessed as upregulation of LDLR protein expression by Western blot analysis; assay type: functional, cell-based; conditions: dose 2.5-15 µM, DDE = dose-dependent effect
# THP-1 [29] = test: Inhibition of ox-LDL uptake in human THP-1 foam cells assessed as downregulation of CD36 expression by measuring reduction in phosphorylated p38 protein expression at 2.5 to 15 uM by Western blot analysis; assay type: functional, cell-based; conditions: dose 2.5-15 µM
# HepG2 [30] = test: Reduction in triglyceride level in human HepG2 cells assessed as reduction in FAS protein expression by Western blot analysis; assay type: functional, cell-based; conditions: dose 2.5-15 µM, DDE = dose-dependent effect
# THP-1 [31] = test: Inhibition of ox-LDL induced lipid accumulation in human THP-1 cells assessed as reduction in total triglyceride level at 2.5 to 15 uM; assay type: functional, cell-based; conditions: dose 2.5-15 µM
# HepG2 [32] = test: Reduction in triglyceride level in human HepG2 cells assessed as reduction in ACC mRNA expression by qRT-PCR analysis; assay type: functional, cell-based; conditions: dose 2.5-15 µM, DDE = dose-dependent effect
# THP-1 [33] = test: Inhibition of ox-LDL induced lipid accumulation in human THP-1 cells assessed as reduction in intracellular lipid droplets at 2.5 to 15 uM by oil red O staining based inverted microscopic analysis; assay type: functional, cell-based; conditions: dose 2.5-15 µM
# THP-1 [34] = test: Inhibition of ox-LDL induced lipid accumulation in human THP-1 cells assessed as increase in cholesterol efflux rate incubated for 24 hrs by liquid scintillation counting analysis; assay type: functional, cell-based; conditions: dose 2.5-15 µM, DDE = dose-dependent effect
# THP-1 [35] = test: Inhibition of foam cells formation in human THP-1 cells assessed as upregulation of SR-B1 protein expression at 2.5 to 15 uM by Western blot analysis; assay type: functional, cell-based; conditions: dose 2.5-15 µM
# THP-1 [36] = test: Inhibition of ox-LDL uptake in human THP-1 foam cells assessed as downregulation of CD36 expression by measuring reduction in pJNK protein expression at 2.5 to 15 uM by Western blot analysis; assay type: functional, cell-based; conditions: dose 2.5-15 µM
# THP-1 [37] = test: Inhibition of foam cells formation in human THP-1 cells assessed as upregulation of SR-B1 mRNA expression at 2.5 to 15 uM by RT-PCR analysis; assay type: functional, cell-based; conditions: dose 2.5-15 µM
# HepG2 [38] = test: Downregulation of SREBP1c protein expression in human HepG2 cells at 2.5 to 15 uM by Western blot analysis; assay type: functional, cell-based; conditions: dose 2.5-15 µM
# THP-1 [39] = test: Inhibition of ox-LDL uptake in human THP-1 foam cells assessed as downregulation of CD36 expression by measuring reduction in total p38 protein expression at 2.5 to 15 uM by Western blot analysis; assay type: functional, cell-based; conditions: dose 2.5-15 µM
# THP-1 [40] = test: Induction of lipid efflux in human THP-1 cells assessed as upregulation of LXRalpha mRNA expression by qRT-PCR analysis; assay type: functional, cell-based; conditions: dose 2.5-15 µM, DDE = dose-dependent effect
# THP-1 [41] = test: Inhibition of foam cells formation in human THP-1 cells assessed as upregulation of ABCG1 protein expression at 2.5 to 15 uM by Western blot analysis; assay type: functional, cell-based; conditions: dose 2.5-15 µM
compound,measurement,setting,value
CC(C)=CCc1ccc(O)c2c1[C@H](c1cc(C)cc3c1O[C@H](C(C)(C)O)CO3)NC2=O,inhibition,HepG2 [1],Active
same,inhibition,THP-1 [2],Active
same,inhibition,HepG2 [3],Active
same,Activity,HepG2 [4],Dde
same,Activity,HepG2 [5],Active
same,Activity,HepG2 [6],Dde
same,inhibition,THP-1 [7],Active
same,Activity,HepG2 [8],Active
same,Activity,HepG2 [9],Dde
same,inhibition,THP-1 [10],Active
same,inhibition,THP-1 [11],Active
same,Activity,HepG2 [12],Active
same,Activity,THP-1 [13],Active
same,inhibition,THP-1 [14],Active
same,Activity,HepG2 [15],Non-Toxic
same,Activity,HepG2 [16],Active
same,Activity,HepG2 [17],Active
same,Activity,THP-1 [18],Active
same,inhibition,THP-1 [19],Active
same,Activity,HepG2 [20],Dde
same,Activity,THP-1 [21],Dde
same,Activity,HepG2 [22],Active
same,Activity,THP-1 [23],Non-Toxic
same,inhibition,THP-1 [24],Active
same,inhibition,THP-1 [25],Active
same,inhibition,THP-1 [26],Active
same,inhibition,THP-1 [27],Active
same,Activity,HepG2 [28],Dde
same,inhibition,THP-1 [29],Active
same,Activity,HepG2 [30],Dde
same,inhibition,THP-1 [31],Active
same,Activity,HepG2 [32],Dde
same,inhibition,THP-1 [33],Active
same,inhibition,THP-1 [34],Dde
same,inhibition,THP-1 [35],Active
same,inhibition,THP-1 [36],Active
same,inhibition,THP-1 [37],Active
same,Activity,HepG2 [38],Active
same,inhibition,THP-1 [39],Active
same,Activity,THP-1 [40],Dde
same,inhibition,THP-1 [41],Active
